Test results: patent US20130287700A1, “COMPOUNDS FOR THE DIAGNOSIS OF NEURODEGENERATIVE DISORDERS ON THE OLFACTORY EPITHELIUM” (KLINIKUM DARMSTADT GMBH, priority 2010, published 2013)
“Also recorded” adds a separate entry of the source.

Tested on: Tau fibril
Experiment: Staining of tissue sections with the dyes, fluorescence microscopy: Tau in hippocampus
Type: binding, human
Conditions: person, AD, DAPI filter
Method: (§1) Tissue samples were fixed in 10% buffered formalin solution and embedded in paraffin. Slices of 4 μm thickness were prepared using a microtome and mounted on a slide in a water bath. Deparaffinization was carried out according to the following steps:
(§2) Xylene 15 min, 100% ethanol 10 min, 96% ethanol 10 min, 70% ethanol 10 min and storage in water until staining.
(§3) Staining with dyes of this invention was subsequently performed according to the following procedure steps:
(§4) Dyes of the present invention were applied in 0.01-1% ethanolic or methanolic solution dropwise onto the tissue section (50-200 μL) and incubated in a moist, EtOH/MeOH saturated and light-protected chamber for 10 min.
(§5) In the case of poorly soluble substances, up to 10% DMSO were added and, if required, filtered through a syringe filter (0.45 μm pore size).
(§6) Samples were stained with dyes of the present invention as described in example 21 and subsequently investigated using a Zeiss Axioskop, ABO 100 Hg fluorescent lamp, camera: Leica DFC300FX. Depending on the respective dye used, either a FITC filter or a DAPI filter was utilized.

Row | Structure (SMILES) | Structure stained by the dye
1 | CCN(CC)c1ccc2cc(-c3csc(NNC(=O)c4cccnc4)n3)c(=O)oc2c1 [BSc4007, N′-(4-(7-(diethylamino)-2-oxo-2H-chromen-3-yl)thiazol-2-yl)nicotinohydrazide] | Tau fibril
2 | O=C(NCc1cccc(F)c1)Nc1ccc2nonc2c1 [BSc4138, 1-(Benzo[c][1,2,5]oxadiazol-5-yl)-3-(3-fluorobenzyl)urea] | Tau fibril

Tested on: Aβ plaque
Experiment: Staining of tissue sections with the dyes, fluorescence microscopy: Aβ deposits in brain/hippocampus
Type: binding, human
Conditions: hippocampus, AD+, DAPI filter
Method: as §1, §2, §3, §4, §5, §6

Row | Structure (SMILES) | Structure stained by the dye
3 | CN(C)c1ccc(/C=C/c2cc(/C=C/c3ccc(N(C)C)cc3)ncn2)cc1 [BSc4090, 4-((1E)-2-(6-(4-(dimethylamino)styryl)pyrimidine-4-yl)vinyl)-N,N-dimethylbenzenamine] | Aβ plaque
4 | CSc1nc(/C=C/c2ccc(N(C)C)cc2)cc(/C=C/c2ccc(N(C)C)cc2)n1 [BSc4097, 4,4′-(1E,1′E)-2,2′-(2-(methylthio)pyrimidine-4,6-diyl)bis(ethene-2,1-diyl)bis(N,N-dimethylaniline)] | Aβ plaque
5 | O=C(NCc1cccc(F)c1)Nc1ccc2nonc2c1 [BSc4138, 1-(Benzo[c][1,2,5]oxadiazol-5-yl)-3-(3-fluorobenzyl)urea] | Aβ plaque
6 | C(=C\c1cccc2ccccc12)/c1cc(/C=C/c2cccc3ccccc23)ncn1 [BSc4328, 4,6-Bis((E)-2-(naphthalene-1-yl)vinyl)pyrimidine] | Aβ plaque
7 | C(=N/Nc1ccc(-c2nc3ccccc3s2)cc1)/c1cccnc1 [BSc4337, (Z)-1-(4-(benzo[d]thiazol-2-yl)phenyl)-2-((pyridine-3-yl)methylene)hydrazine] | Aβ plaque
8 | Cn1c2ccccc2c2cc(/C=N\Nc3ccc(-c4nc5ccccc5s4)cc3)ccc21 [BSc4342, (Z)-1-(4-(benzo[d]thiazol-2-yl)phenyl)-2-((9-methyl-9H-carbazol-3-yl)methylene)hydrazin] | Aβ plaque
9 | CN(C)c1ccc(/C=C/c2cnc(/C=C/c3ccc(N(C)C)cc3)cn2)cc1 [BSc4352, 4,4′-(1E,1′E)-2,2′-(pyrazine-2,5-diyl)bis(ethene-2,1-diyl)bis(N,N-dimethylaniline)] | Aβ plaque

Same assay, conditions: hippocampus, AD+, FITC filter

Row | Structure (SMILES) | Structure stained by the dye
10 | CN(C)c1ccc(/C=C/c2cc(/C=C/c3ccc(N(C)C)cc3)ncn2)cc1 [BSc4090, 4-((1E)-2-(6-(4-(dimethylamino)styryl)pyrimidine-4-yl)vinyl)-N,N-dimethylbenzenamine] | Aβ plaque
11 | Cn1cccc1/C=C/c1cc(/C=C/c2cccn2C)ncn1 [BSc4327, 4,6-Bis((E)-2-(1-methyl-1H-pyrrol-2-yl)vinyl)pyrimidine] | Aβ in angiopathy
12 | Cn1cccc1/C=C/c1cnc(/C=C/c2cccn2C)cn1 [BSc4353, 2,5-Bis((E)-2-(1-methyl-1H-pyrrol-2-yl)vinyl)pyrazine] | Aβ in angiopathy; also recorded: Aβ plaque
13 | COc1ccc(/C=C/c2cnc(/C=C/c3ccc(OC)cc3)cn2)cc1 [BSc4354, 2,5-Bis(4-methoxystyryl)pyrazine] | Aβ in angiopathy; also recorded: Aβ plaque
